Assay results taken from patent US20220257491A1, “Prebiotic Oral Care Compositions and Methods” (Colgate-Palmolive Company, priority 2021, published 2022).
Marks after values point to notes of the source that are not given here.

Experiments:
Type in all cases: cell-based
multi-species biofilms = test: Multi-species biofilm organic acid balances (supernatant); details: >0 production, <0 consumption, mean±SD n=3
Description: (§1) Biofilms are grown vertically on Calcium Deficient Hydroxyapatite (CAD-HA) disks (Hitemco Medical, Old Bethpage, USA) using the Amsterdam Active Adhesion model. Biofilms are allowed to establish during 24 h (37° C., 170 rpm) under micro-aerophilic conditions (6% O2, 7% CO2, 7% H2, 80% N2). After this 24 h, disks are rinsed 3 times a day for 3 minutes (RT, 250 rpm), for 3 consecutive days, by transferring the lid containing the disks to a new 24-well plate containing 2 mL/well of the appropriate substrate solution. As a negative control, PBS (pH 5.7) without substrate supplementation is used. After each rinsing step, disks are shortly dip-rinsed in a new 24-well plate containing fresh modified BHI medium (2 mL/well) to remove remaining substrate traces. Subsequently, the lid is transferred to another 24-well plate containing fresh modified BHI medium (2 mL/well), followed by incubation (micro-aerophilic, 37° C., 170 rpm) until the next rinsing step.
To examine the effect of NADM and the influence of the orientation and absence/presence of the N-acetyl group on organic acid production and consumption, supernatant samples from substrate-treated or untreated multi-species biofilms are analysed. […] When comparing relevant significant differences between substrate conditions, an increase in acetate production is observed for NADM compared to D-(+)-mannose (3084±174 vs. 1934±56 mg/L).

S. sobrinus = test: Multi-species biofilm composition: absolute abundance of S. sobrinus; details: mean±SD n=3
Description: as §1
(§2) NADM, N-acetyl-D-glucosamine (“NADG”) and D-(+)-mannose are selected to determine their effects on multi-species biofilm composition. […] decrease in absolute numbers in at least four of the pathogenic bacterial species tested in the assay, compared to the control, the results of which are described in Table 1 below. Absolute abundances of bacterial species are shown as mean±SD (n=3) logarithmic values of the genome equivalents per millilitre (log(Geq/mL)).

multi-species biofilm = test: Relative multi-species biofilm composition (groups of bacterial species); details: for Relative abundance Beneficials/Commensals / Relative abundance Cariogenic Pathogens / Relative abundance Periodontal Pathogens / Relative abundance Beneficial or commensals: mean±SD n=3
Description: as §1, §2
Relative abundances of the different groups (beneficial/commensals, periodontal pathogens, cariogenic pathogens) of bacterial species are shown as mean±SD (n=3) percentage of the genome equivalents per millilitre (% (Geq/mL)). […] NADM: N-acetyl-D-mannosamine; NADG: N-acetyl-D-glucosamine.

A. actinomycetemcomitans = test: Multi-species biofilm composition: absolute abundance of A. actinomycetemcomitans; details: mean±SD n=3
Description: as §1, §2

[1] = tested on: A. actinomycetemcomitans virulence genes; test: Multi-species biofilm virulence gene expression, SYBR RT-qPCR: A. actinomycetemcomitans; details: for Fold Change in virulence gene expression: aae / Fold Change in virulence gene expression: apaH / Fold Change in virulence gene expression: cdtB / Fold Change in virulence gene expression: emaA / Fold Change in virulence gene expression: flp / Fold Change in virulence gene expression: ltxA / Fold Change in virulence gene expression: omp29 / Fold Change in virulence gene expression: omp100 / Fold Change in virulence gene expression: orf859 / Fold Change in virulence gene expression: pgA / Fold Change in virulence gene expression: vapA / Fold Change in virulence gene expression: vppA: relative to control (=1), 2^-ΔΔCt, geometric mean n=3
Description: as §1
The expression of 33 virulence genes from 4 periodontal pathogens is analysed to evaluate the relative virulence of the substrate-treated biofilms. For all three substrates, virulence gene expression is determined relatively to the control, and these values are also compared between substrates when this is relevant (Tables 5a-5d).

S. sanguinis = test: Multi-species biofilm composition: absolute abundance of S. sanguinis; details: mean±SD n=3
Description: as §1, §2

P. intermedia = test: Multi-species biofilm composition: absolute abundance of P. intermedia; details: mean±SD n=3
Description: as §1
NADM, N-acetyl-D-glucosamine (“NADG”) and D-(+)-mannose are selected to determine their effects on multi-species biofilm composition. Repeated rinsing of the biofilms with the substrates at a concentration of 1M results in a significant decrease in absolute numbers in at least four of the pathogenic bacterial species tested in the assay, compared to the control, the results of which are described in Table 1 below. Absolute abundances of bacterial species are shown as mean±SD (n=3) logarithmic values of the genome equivalents per millilitre (log(Geq/mL)).

[2] = tested on: human oral keratinocytes (HOK-18A); test: Inflammatory mediator gene expression in keratinocytes exposed to substrate-treated biofilms; details: for Fold change in inflammatory mediator gene expression: IL-1β / Fold change in inflammatory mediator gene expression: IL-6 / Fold change in inflammatory mediator gene expression: IL-8 / Fold change in inflammatory mediator gene expression: MMP-8 / Fold change in inflammatory mediator gene expression: TNF-α: relative to control (=1), geometric mean (95% C.I.) n=3
Description: Cultures of immortalized human oral keratinocytes (HOK-18A) are grown. The relative inflammatory potential of the substrate-treated multi-species biofilms is evaluated by analyzing the expression of five inflammatory mediator genes in human oral keratinocytes (HOKs) exposed to the substrate-treated biofilms. […] The IL-8 levels in the cellular supernatant are determined as well. RNA is converted to cDNA and relative expression of inflammatory mediator genes is determined as described above with respect to the cellular housekeeping gene (3-actin.
In HOKs exposed to substrate-treated (substrate concentrations of 1 M) multi-species biofilms, mostly decreases in inflammatory mediator gene expression are observed and measured via SYBR RT-qPCR, the results of which are detailed in Table 6.
All substrates are dissolved in PBS at a concentration of 1 M (upper part) or 1% (w/v) (lower part). Values between 0 and 1 represent relative downregulation, values >1 represent relative upregulation. […] For such values, statistically significant differences between two experimental conditions are marked with ‘#1’ (vs. NADM), ‘#2’ (vs. NADG), ‘#3’ (vs. D-(+)-mannose) (P<0.05).

[3] = substrate 1 M, listed as D-(+)-mannose
[4] = substrate 1%(w/v) in PBS, listed as D-(+)-mannose
[5] = substrate 1 M in PBS, listed as D-(+)-mannose
[6] = biofilm rinsed with substrate 1%
[7] = biofilm rinsed with substrate 1M

With `O=C[C@@H](O)[C@@H](O)[C@H](O)[C@H](O)CO` [D-mannose, D-(+)-mannose] the “acetate level in biofilm supernatant” value (multi-species biofilms; substrate 1%(w/v)) was 352 ± 24 mg/L, the “butyrate level in biofilm supernatant” value (multi-species biofilms; substrate 1%(w/v)) was 1985 ± 37 mg/L and the “formate level in biofilm supernatant” value (multi-species biofilms; substrate 1%(w/v)) was 3717 ± 114 mg/L. The “lactate level in biofilm supernatant” value (multi-species biofilms; substrate 1%(w/v)) was 125 ± 0 mg/L, the “propionate level in biofilm supernatant” value (multi-species biofilms; substrate 1%(w/v)) was 1962 ± 28 mg/L and the “acetate level in biofilm supernatant” value (multi-species biofilms; substrate 1 M) was 1934 ± 56*^, #1 mg/L. For the same compound, the “butyrate level in biofilm supernatant” value (multi-species biofilms; substrate 1 M) was 86 ± 15*^, #1, 2 mg/L, the “formate level in biofilm supernatant” value (multi-species biofilms; substrate 1 M) was 398 ± 12 mg/L and the “lactate level in biofilm supernatant” value (multi-species biofilms; substrate 1 M) was 125 ± 0 mg/L. The “propionate level in biofilm supernatant” value (multi-species biofilms; substrate 1 M) was 2821 ± 127 mg/L, the “acetate level in biofilm supernatant” value (multi-species biofilms; [3]) was 1934 ± 56 mg/L and the “butyrate level in biofilm supernatant” value (multi-species biofilms; [3]) was 85 ± 15 mg/L. The “propionate level in biofilm supernatant” value (multi-species biofilms; [3]) was 2821 ± 127 mg/L, the “Absolute abundance S. sobrinus” value (S. sobrinus; substrate 1%(w/v) in PBS) was 5.28 ± 0.44 log(Geq/mL) and the “Absolute abundance S. sobrinus” value (S. sobrinus; substrate 1 M in PBS) was 5.44 ± 0.31 log(Geq/mL). The “Relative abundance Beneficials/Commensals” value (multi-species biofilm; substrate 1%(w/v) in PBS) was 84.18 ± 2.04 % (Geq/mL), the “Relative abundance Cariogenic Pathogens” value (multi-species biofilm; substrate 1%(w/v) in PBS) was 0.21 ± 0.04 % (Geq/mL) and the “Relative abundance Periodontal Pathogens” value (multi-species biofilm; substrate 1%(w/v) in PBS) was 15.61 ± 2.00 % (Geq/mL). For the same compound, the “Relative abundance Beneficials/Commensals” value (multi-species biofilm; [4]) was 84.18±2.04 % (Geq/mL), the “Relative abundance Periodontal Pathogens” value (multi-species biofilm; [4]) was 15.61±2.00 % (Geq/mL) and the “Relative abundance Beneficial or commensals” value (multi-species biofilm; substrate 1 M in PBS) was 96.83 ± 0.62 % (Geq/mL). For the same compound, the “Relative abundance Cariogenic Pathogens” value (multi-species biofilm; substrate 1 M in PBS) was 2.40 ± 0.85 % (Geq/mL), the “Relative abundance Periodontal Pathogens” value (multi-species biofilm; substrate 1 M in PBS) was 0.77 ± 0.82 *^, #1 % (Geq/mL) and the “Relative abundance Beneficial or commensals” value (multi-species biofilm; [5]) was 96.83±0.62 % (Geq/mL). The “Relative abundance Periodontal Pathogens” value (multi-species biofilm; [5]) was 0.77±0.82 % (Geq/mL), the “Reduction of A. actinomycetemcomitans, F. nucleatum, P. gingivalis, A. naeslundii and A. viscosus numbers vs control” value (multi-species biofilm; substrate 1 M, range over the species) was −1.2 to −3.7 log(Geq/mL) and the “Absolute abundance Aa (A. actinomycetemcomitans)” value (A. actinomycetemcomitans; substrate 1%(w/v) in PBS) was 9.02 ± 0.11 log(Geq/mL). For the same compound, the “Absolute abundance Aa (A. actinomycetemcomitans)” value (A. actinomycetemcomitans; substrate 1 M in PBS) was 6.07 ± 0.47 log(Geq/mL), the “Fold Change in virulence gene expression: aae” value ([1]; substrate 1% (w/v)) was 1.06 fold and the “Fold Change in virulence gene expression: apaH” value ([1]; substrate 1% (w/v)) was 0.72 fold. For the same compound, the “Fold Change in virulence gene expression: cdtB” value ([1]; substrate 1% (w/v)) was 0.36 fold, the “Fold Change in virulence gene expression: emaA” value ([1]; substrate 1% (w/v)) was 0.41 fold and the “Fold Change in virulence gene expression: flp” value ([1]; substrate 1% (w/v)) was 1.26 fold. The “Fold Change in virulence gene expression: ltxA” value ([1]; substrate 1% (w/v)) was 0.17 fold, the “Fold Change in virulence gene expression: omp29” value ([1]; substrate 1% (w/v)) was 0.65 fold and the “Fold Change in virulence gene expression: omp100” value ([1]; substrate 1% (w/v)) was 0.34 fold. The “Fold Change in virulence gene expression: orf859” value ([1]; substrate 1% (w/v)) was 1.46 fold, the “Fold Change in virulence gene expression: pgA” value ([1]; substrate 1% (w/v)) was 0.55 fold and the “Fold Change in virulence gene expression: vapA” value ([1]; substrate 1% (w/v)) was 0.39 fold. For the same compound, the “Fold Change in virulence gene expression: vppA” value ([1]; substrate 1% (w/v)) was 0.53 fold, the “A. actinomycetemcomitans gene expression decrease: cdtB, emaA, ltxA, omp100 and vapA” value ([1]; substrate 1%(w/v)) was 2.4- to 5.9 fold and the “Fold Change in virulence gene expression: aae” value ([1]; substrate 1M) was 0.16 fold. For the same compound, the “Fold Change in virulence gene expression: apaH” value ([1]; substrate 1M) was 0.12 fold, the “Fold Change in virulence gene expression: cdtB” value ([1]; substrate 1M) was 0.13 fold and the “Fold Change in virulence gene expression: emaA” value ([1]; substrate 1M) was 0.12 fold. The “Fold Change in virulence gene expression: flp” value ([1]; substrate 1M) was 1.57 fold, the “Fold Change in virulence gene expression: ltxA” value ([1]; substrate 1M) was 0.02 fold and the “Fold Change in virulence gene expression: omp29” value ([1]; substrate 1M) was 0.27 fold. For the same compound, the “Fold Change in virulence gene expression: omp100” value ([1]; substrate 1M) was 0.26 fold, the “Fold Change in virulence gene expression: orf859” value ([1]; substrate 1M) was 0.03 fold and the “Fold Change in virulence gene expression: pgA” value ([1]; substrate 1M) was 5.70 fold. The “Fold Change in virulence gene expression: vapA” value ([1]; substrate 1M) was 0.62 fold, the “Fold Change in virulence gene expression: vppA” value ([1]; substrate 1M) was 0.58 fold and the “Absolute abundance S. sang. (S. sanguinis)” value (S. sanguinis; substrate 1%(w/v) in PBS) was 8.19 ± 0.11 log(Geq/mL). The “Absolute abundance S. sang. (S. sanguinis)” value (S. sanguinis; substrate 1 M in PBS) was 7.39 ± 0.89 log(Geq/mL), the “Absolute abundance Pi (P. intermedia)” value (P. intermedia; substrate 1%(w/v) in PBS) was 8.06 ± 0.19 log(Geq/mL) and the “Absolute abundance Pi (P. intermedia)” value (P. intermedia; substrate 1 M in PBS) was 7.80 ± 0.57 log(Geq/mL). The “Fold change in inflammatory mediator gene expression: IL-1β” value [2, 6] was 0.79 (0.43-1.48) fold, the “Fold change in inflammatory mediator gene expression: IL-6” value [2, 6] was 0.79 (0.60-1.06) fold and the “Fold change in inflammatory mediator gene expression: IL-8” value [2, 6] was 1.22 (0.79-1.86) fold. For the same compound, the “Fold change in inflammatory mediator gene expression: MMP-8” value [2, 6] was 0.40 (0.27-0.58)* fold, the “Fold change in inflammatory mediator gene expression: TNF-α” value [2, 6] was 0.770.48-1.23) fold and the “Fold change in inflammatory mediator gene expression: IL-1β” value [2, 7] was 0.81 (0.59-1.12) fold. The “Fold change in inflammatory mediator gene expression: IL-6” value [2, 7] was 0.63 (0.41-0.97) fold, the “Fold change in inflammatory mediator gene expression: IL-8” value [2, 7] was 0.12 (0.06-0.27)* fold and the “Fold change in inflammatory mediator gene expression: MMP-8” value [2, 7] was 1.25 (1.10-1.42) fold. For the same compound, the “Fold change in inflammatory mediator gene expression: TNF-α” value [2, 7] was 0.77 (0.37-1.60) fold and the “Decreased MMP-8 gene expression” value ([2]; substrate 1%(w/v)) was 2.5 fold.
